The values that follow come from patent publication US8168681B2, “Amidoacetonitrile compounds and pesticidal composition thereof” (Novartis AG, priority 2008, dated 2012).

The subject of assay [1] is Haemonchus contortus. Nature of the assay: In-vivo test on Mongolian gerbils using peroral application. Further details: species or system Mongolian gerbils (Meriones unguiculatus). The conditions noted are these: repeated test 2a, gerbil, 0.32 mg/kg. As for the experimental part:
(§1) Six to eight week old Mongolian gerbils are infected through a stomach tube with ca. 2000 third instar larvae each of T. colubriformis and H. contortus. 6 days after infection, the gerbils are treated by peroral application with the test compounds, dissolved in a mixture of 2 parts DMSO and 1 part polyethylene glycol (PEG 400). On day 9 (3 days after treatment), when most of the H. contortus that are still present are late 4th instar larvae and most of the T. colubriformis are immature adults, the gerbils are killed in order to count the worms. The efficacy is calculated as the % reduction of the number of worms in each gerbil, compared with the geometric average of number of worms from 6 infected and untreated gerbils.
(§2) The above described in-vivo test on Trichostrongylus colubriformis (Tc) and Haemonchus contortus ([…]) was repeated with compounds 1.2, 1.3 and 1.5 from Table 1 and with the compounds of Examples 1a and 3a on pages 22-25 of WO 2008/96231.

The test system of assay [2] is Trichostrongylus colubriformis. The description is as above. The conditions noted are these: repeated test 2a, gerbil, 0.32 mg/kg. More on the design: species or system Mongolian gerbils (Meriones unguiculatus). As for the experimental part:
as §1, §2

Assay [3] relates to Haemonchus contortus. Nature of the assay: Activity in vitro (egg hatch / larval development, 96-well agar plate). The conditions noted are these: 0.1 ppm; 6 days at 25° C.; reduced egg hatch, reduced development of L3, or paralysis & death of larvae. The protocol:
(§3) Freshly harvested and cleaned nematode eggs are used to seed a suitably formatted 96-well plate containing the test substances to be evaluated for antiparasitic activity. Each compound is tested by serial dilution in order to determine its MED. The test compounds are embedded in an agar-based nutritive medium allowing the full development of eggs through to 3rd instar larvae. The plates are incubated for 6 days at 25° C. and 60% relative humidity (RH). Egg-hatching and ensuing larval development are recorded to identify a possible nematodicidal activity. Efficacy is expressed in percent reduced egg hatch, reduced development of L3, or paralysis & death of larvae of all stages.

Assay [4] concerns Trichostrongylus colubriformis. The description is as above. To be noted: 0.1 ppm; 6 days at 25° C.; reduced egg hatch, reduced development of L3, or paralysis & death of larvae. As for the experimental part:
as §3

Consider `CC(C#N)(COc1cc(C#N)ccc1Oc1ccc(F)cc1Br)NC(=O)c1ccc(S(F)(F)(F)(F)F)cc1` (stereo not drawn) [Compound 1.3, N-[1-cyano-1-methyl-2-(5-cyano-2-{2-bromo-4-fluorophenoxy}-phenoxy)-ethyl]-4-pentafluorothio-benzamide], for which, in the assay with Haemonchus contortus [1], the “Efficacy against Hc [%]” value was 100%. Further, the “Efficacy against Tc [%]” value in assay [2] is recorded as 98%.
Take `CC(C#N)(COc1cc(C#N)ccc1Oc1ccc(Cl)cc1Cl)NC(=O)c1ccc(S(F)(F)(F)(F)F)cc1` (stereo not drawn) [Compound 1.2, N-[1-cyano-1-methyl-2-(5-cyano-2-{2,4-dichlorophenoxy}-phenoxy)-ethyl]-4-pentafluorothio-benzamide]: the “Efficacy against Hc [%]” value in the assay with Haemonchus contortus [1] is given as 98%. Besides, the “Efficacy against Tc [%]” value in assay [2] amounted to 100%.
In the same order, the values of `CC(C#N)(COc1cc(C#N)ccc1Oc1ccc(OC(F)(F)F)cc1Cl)NC(=O)c1ccc(S(F)(F)(F)(F)F)cc1` (stereo not drawn) [Compound 1.5, N-[1-cyano-1-methyl-2-(5-cyano-2-{2-chloro-4-trifluoromethoxy-phenoxy}-phenoxy)-ethyl]-4-pentafluorothio-benzamide] are 100% and 99%.
For the molecule `CC(C#N)(COc1cc(Cl)ccc1Oc1ccc(Cl)cc1Cl)NC(=O)c1ccc(S(C)(=O)=O)cc1` (stereo not drawn) [Compound 1.10, N-[1-cyano-1-methyl-2-(5-chloro-2-{2,4-dichlorophenoxy}-phenoxy)-ethyl]-4-methylsulfonyl-benzamide], the “efficacy against Haemonchus contortus” value in the assay with Haemonchus contortus [3] is listed as “more than 90%”. Besides, the “efficacy against Trichostrongylus colubriformis” value in assay [4] is on record as “more than 90%”.
In the case of `CC(C#N)(COc1cc(C#N)ccc1C(F)(F)F)NC(=O)c1ccc(S(F)(F)(F)(F)F)cc1` (stereo not drawn) [reference compound], the “Efficacy against Hc [%]” value with Haemonchus contortus [1] is 85%. Also, in assay [2], the “Efficacy against Tc [%]” value is 33%.
With `CC(C#N)(COc1ccc(C#N)cc1C(F)(F)F)NC(=O)c1ccc(S(F)(F)(F)(F)F)cc1` (stereo not drawn) [reference compound], the “Efficacy against Hc [%]” value in the assay on Haemonchus contortus [1] worked out at 40%. Moreover, the “Efficacy against Tc [%]” value in assay [2] is 23%.
